Molecular target: T1, MLLT1 (Homo sapiens, UniProt Q03111)
T1 construct: host or cells: MV4-11
T1 sequence (Q03111 1-559): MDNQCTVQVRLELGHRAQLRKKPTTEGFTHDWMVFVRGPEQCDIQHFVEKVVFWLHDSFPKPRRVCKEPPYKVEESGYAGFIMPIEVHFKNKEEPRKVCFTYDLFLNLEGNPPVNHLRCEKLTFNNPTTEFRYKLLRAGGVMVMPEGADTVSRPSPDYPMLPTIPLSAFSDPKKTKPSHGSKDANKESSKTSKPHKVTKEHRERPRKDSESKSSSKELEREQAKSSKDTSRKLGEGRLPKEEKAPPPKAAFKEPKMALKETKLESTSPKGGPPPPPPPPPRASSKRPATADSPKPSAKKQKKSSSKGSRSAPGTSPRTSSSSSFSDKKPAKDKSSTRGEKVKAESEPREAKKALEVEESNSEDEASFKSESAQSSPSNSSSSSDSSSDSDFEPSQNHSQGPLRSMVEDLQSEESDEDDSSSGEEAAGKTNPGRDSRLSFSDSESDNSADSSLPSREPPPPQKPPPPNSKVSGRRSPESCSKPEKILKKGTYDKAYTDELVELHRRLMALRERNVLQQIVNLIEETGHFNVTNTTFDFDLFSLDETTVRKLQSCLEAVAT
Test: MLLT1 degradation assay in MV4-11 cells (JESS chemiluminescent detection), three concentrations, 24 h
Type: cell-based
Details: with respect to DMSO control
Method in brief: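 Read-out is % MLLT1 degradation versus DMSO, from band peak areas on a JESS chemiluminescent system. Cells (MV4-11) were exposed for 24 h at 37° C to three compound levels, 10, 100 and 1000 nM, in 0.1% DMSO.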

SMILES	MLLT1% Degradation @ 0.01 μM	MLLT1% Degradation @ 0.1 μM	MLLT1% Degradation @ 1 μM
CN1CCC[C@@H]1c1cc2cnc(NC(=O)c3ccc(N4CCN(CC5CCN(c6ccc(C(=O)N[C@H]7CCC(=O)NC7=O)nc6)CC5)CC4)cc3)cc2[nH]1 [Example 181, N—((S)-2,6-dioxopiperidin-3-yl)-5-(4-((4-(4-((2-((R)-1-methylpyrrolidin-2-yl)-1H-pyrrolo[3,2-c]pyridin-6-yl)carbamoyl)phenyl)piperazin-1-yl)methyl)piperidin-1-yl)picolinamide]	D (Category D: D < 25% degradation)	C (Category C: 25% ≤ C < 50% degradation)	B (Category B: 50% ≤ B < 75% degradation)
CN1CCC[C@@H]1c1cc2cnc(NC(=O)c3ccc(N4CCN(CC5CCN(c6cccc(C(=O)N[C@H]7CCC(=O)NC7=O)n6)CC5)CC4)cc3)cc2[nH]1 [Example 182, N—((S)-2,6-dioxopiperidin-3-yl)-6-(4-((4-(4-((2-((R)-1-methylpyrrolidin-2-yl)-1H-pyrrolo[3,2-c]pyridin-6-yl)carbamoyl)phenyl)piperazin-1-yl)methyl)piperidin-1-yl)picolinamide]	C (Category C: 25% ≤ C < 50% degradation)	B (Category B: 50% ≤ B < 75% degradation)	B (Category B: 50% ≤ B < 75% degradation)
CN1CCC[C@@H]1c1cc2cnc(NC(=O)c3ccc(N4CC(CN5CCN(c6ccc7c(c6)C(=O)N(C6CCC(=O)NC6=O)C7=O)CC5)C4)cc3)cc2[nH]1 (stereo partly drawn) [Example 183, 4-(3-((4-(2-(2,6-dioxopiperidin-3-yl)-1,3-dioxoisoindolin-5-yl)piperazin-1-yl)methyl)azetidin-1-yl)-N-(2-((R)-1-methylpyrrolidin-2-yl)-1H-pyrrolo[3,2-c]pyridin-6-yl)benzamide]	C (Category C: 25% ≤ C < 50% degradation)	B (Category B: 50% ≤ B < 75% degradation)	B (Category B: 50% ≤ B < 75% degradation)
CN1CCC[C@@H]1c1cc2cnc(NC(=O)c3ccc(OC4CCN(CC5CCN(c6cc7c(cc6F)C(=O)N(C6CCC(=O)NC6=O)C7=O)CC5)CC4)cc3)cc2[nH]1 (stereo partly drawn) [Example 184, 4-((1-((1-(2-(2,6-dioxopiperidin-3-yl)-6-fluoro-1,3-dioxoisoindolin-5-yl)piperidin-4-yl)methyl)piperidin-4-yl)oxy)-N-(2-((R)-1-methylpyrrolidin-2-yl)-1H-pyrrolo[3,2-c]pyridin-6-yl)benzamide]	B (Category B: 50% ≤ B < 75% degradation)	A (Category A: A ≥ 75% degradation)	A (Category A: A ≥ 75% degradation)
CN1CCC[C@@H]1c1cc2cnc(NC(=O)c3ccc(N4CCC(C#Cc5cccc6c5CN(C5CCC(=O)NC5=O)C6=O)CC4)nn3)cc2[nH]1 (stereo partly drawn) [Example 185, 6-(4-((2-(2,6-dioxopiperidin-3-yl)-1-oxoisoindolin-4-yl)ethynyl)piperidin-1-yl)-N-(2-((R)-1-methylpyrrolidin-2-yl)-1H-pyrrolo[3,2-c]pyridin-6-yl)pyridazine-3-carboxamide]	C (Category C: 25% ≤ C < 50% degradation)	B (Category B: 50% ≤ B < 75% degradation)	B (Category B: 50% ≤ B < 75% degradation)
CN1CCC[C@@H]1c1cc2cnc(NC(=O)c3ccc(N4CC[C@H](CC#Cc5cccc6c5CN(C5CCC(=O)NC5=O)C6=O)C4)nc3)cc2[nH]1 (stereo partly drawn) [Example 187, 6-((3S)-3-(3-(2-(2,6-dioxopiperidin-3-yl)-1-oxoisoindolin-4-yl)prop-2-yn-1-yl)pyrrolidin-1-yl)-N-(2-((R)-1-methylpyrrolidin-2-yl)-1H-pyrrolo[3,2-c]pyridin-6-yl)nicotinamide]	B (Category B: 50% ≤ B < 75% degradation)	B (Category B: 50% ≤ B < 75% degradation)	B (Category B: 50% ≤ B < 75% degradation)
CN1CCC[C@@H]1c1cc2cnc(NC(=O)c3ccc(N4CCC(CCCCC#Cc5cccc6c5CN(C5CCC(=O)NC5=O)C6=O)CC4)nc3)cc2[nH]1 (stereo partly drawn) [Example 188, 6-(4-(6-(2-(2,6-dioxopiperidin-3-yl)-1-oxoisoindolin-4-yl)hex-5-yn-1-yl)piperidin-1-yl)-N-(2-((R)-1-methylpyrrolidin-2-yl)-1H-pyrrolo[3,2-c]pyridin-6-yl)nicotinamide]	C (Category C: 25% ≤ C < 50% degradation)	B (Category B: 50% ≤ B < 75% degradation)	B (Category B: 50% ≤ B < 75% degradation)
CN1CCC[C@@H]1c1cc2cnc(NC(=O)c3ccc(N4CCN(C(=O)CCC5CCN(c6cccc7c6CN(C6CCC(=O)NC6=O)C7=O)CC5)CC4)cc3)cc2[nH]1 (stereo partly drawn) [Example 189, 4-(4-(3-(1-(2-(2,6-dioxopiperidin-3-yl)-1-oxoisoindolin-4-yl)piperidin-4-yl)propanoyl)piperazin-1-yl)-N-(2-((R)-1-methylpyrrolidin-2-yl)-1H-pyrrolo[3,2-c]pyridin-6-yl)benzamide]	B (Category B: 50% ≤ B < 75% degradation)	B (Category B: 50% ≤ B < 75% degradation)	C (Category C: 25% ≤ C < 50% degradation)
CN1CCC[C@@H]1c1cc2cnc(NC(=O)c3cccc(N4CCN(CC5CCN(c6ccc7c(c6)CN(C6CCC(=O)NC6=O)C7=O)CC5)CC4)c3)cc2[nH]1 (stereo partly drawn) [Example 192, 3-(4-((1-(2-(2,6-dioxopiperidin-3-yl)-1-oxoisoindolin-5-yl)piperidin-4-yl)methyl)piperazin-1-yl)-N-(2-((R)-1-methylpyrrolidin-2-yl)-1H-pyrrolo[3,2-c]pyridin-6-yl)benzamide]	B (Category B: 50% ≤ B < 75% degradation)	B (Category B: 50% ≤ B < 75% degradation)	C (Category C: 25% ≤ C < 50% degradation)
Cc1cc(OC2CCN(c3ccc(C(=O)Nc4cc5[nH]c([C@H]6CCCN6C)cc5cn4)cn3)CC2)ccc1-c1cccc2c1CN(C1CCC(=O)NC1=O)C2=O (stereo partly drawn) [Example 196, 6-(4-(4-(2-(2,6-dioxopiperidin-3-yl)-1-oxoisoindolin-4-yl)-3-methylphenoxy)piperidin-1-yl)-N-(2-((R)-1-methylpyrrolidin-2-yl)-1H-pyrrolo[3,2-c]pyridin-6-yl)nicotinamide]	D (Category D: D < 25% degradation)	B (Category B: 50% ≤ B < 75% degradation)	A (Category A: A ≥ 75% degradation)
CN1CCC[C@@H]1c1cc2cnc(NC(=O)c3ccc(CCCN4CCC(c5cccc6c5CN(C5CCC(=O)NC5=O)C6=O)CC4)cc3)cc2[nH]1 (stereo partly drawn) [Example 198, 4-(3-(4-(2-(2,6-dioxopiperidin-3-yl)-1-oxoisoindolin-4-yl)piperidin-1-yl)propyl)-N-(2-((R)-1-methylpyrrolidin-2-yl)-1H-pyrrolo[3,2-c]pyridin-6-yl)benzamide]	C (Category C: 25% ≤ C < 50% degradation)	A (Category A: A ≥ 75% degradation)	A (Category A: A ≥ 75% degradation)
CN1CCC[C@@H]1c1cc2cnc(NC(=O)c3ccc(OC4CC5(CCN(c6cccc7c6CN(C6CCC(=O)NC6=O)C7=O)CC5)C4)cc3F)cc2[nH]1 (stereo partly drawn) [Example 200, 4-((7-(2-(2,6-dioxopiperidin-3-yl)-1-oxoisoindolin-4-yl)-7-azaspiro[3.5]nonan-2-yl)oxy)-2-fluoro-N-(2-((R)-1-methylpyrrolidin-2-yl)-1H-pyrrolo[3,2-c]pyridin-6-yl)benzamide]	B (Category B: 50% ≤ B < 75% degradation)	A (Category A: A ≥ 75% degradation)	A (Category A: A ≥ 75% degradation)
CN1CCC[C@@H]1c1cc2cnc(NC(=O)c3ccc(OCC4CC5(CCN(c6cccc7c6CN(C6CCC(=O)NC6=O)C7=O)CC5)C4)cc3F)cc2[nH]1 (stereo partly drawn) [Example 201, 4-((7-(2-(2,6-dioxopiperidin-3-yl)-1-oxoisoindolin-4-yl)-7-azaspiro[3.5]nonan-2-yl)methoxy)-2-fluoro-N-(2-((R)-1-methylpyrrolidin-2-yl)-1H-pyrrolo[3,2-c]pyridin-6-yl)benzamide]	B (Category B: 50% ≤ B < 75% degradation)	A (Category A: A ≥ 75% degradation)	A (Category A: A ≥ 75% degradation)
CN1CCC[C@@H]1c1cc2cnc(NC(=O)c3ccc(N4CCC5(CC4)CCN(c4cccc6c4CN(C4CCC(=O)NC4=O)C6=O)CC5)cc3F)cc2[nH]1 (stereo partly drawn) [Example 202, 4-(9-(2-(2,6-dioxopiperidin-3-yl)-1-oxoisoindolin-4-yl)-3,9-diazaspiro[5.5]undecan-3-yl)-2-fluoro-N-(2-((R)-1-methylpyrrolidin-2-yl)-1H-pyrrolo[3,2-c]pyridin-6-yl)benzamide]	D (Category D: D < 25% degradation)	C (Category C: 25% ≤ C < 50% degradation)	C (Category C: 25% ≤ C < 50% degradation)
